Like-named read-outs stand apart in the source and are kept apart here.
Experiments:
Inflammatory mediator NO = test: Inhibition of nitric oxide synthesis in LPS-stimulated RAW264.7 macrophages (Griess reaction); assay type: cell-based, murine; conditions: for IC50: Mus musculus; for anti-inflammatory activity (in words): NO inhibition
Experimental: The anti-inflammatory effects were determined in cellular assays by measuring the inhibition of the synthesis of nitric oxide and/or pro-inflammatory prostaglandins (PGE2). PGE2 plays a critical role in the inflammation process, while nitric oxide (NO) is a hallmark of inflammation in various chronic inflammatory diseases including various forms of arthritis, gastro-intestinal diseases and metabolic syndrome X. The effects on the inflammatory response were tested in cellular assays using a murine macrophage cell line, RAW264.7. The cells were purchased from ATCC (Manassas, Va., USA) and cultured in DMEM containing streptomycin/penicillin, non-essential amino acids and 10% fetal calf serum (FCS). In order to test a large range of concentration of MA and HO as well as mixtures thereof, cells (˜50'000/well) were seeded into flat-bottomed microtiter plates and cultured for one day. Cells were then starved in complete medium containing 0.25% FCS (D-025). After overnight culture, medium was removed and replaced by 100 μL of D-025 containing the test compounds at twice the final concentration. Subsequently, 100 μL of D-025 containing 2 μg/ml LPS was added (i.e. final LPS concentration of 1 μg/ml) and the cells cultured for 24 hours. Substances were usually tested in a concentration range from 0.2 to 50 μM in two-fold dilution steps. All treatments were done in duplicates and several experimental series were done for each treatment. Concentrations of nitrite which was rapidly formed from nitric oxide released by cells were determined by the Griess reaction using sodium nitrite as standard. Briefly, 50 μl of supernatant was mixed with Griess reagent 1 (25 μL) and Griess reagent 2 (25 μL), centrifuged and the optical density at 540 nm determined. PGE2 secreted into the cell culture medium was determined by EIA obtained from Cayman Chemicals (Ann Harbor, Wis., USA) and used according to the manufacturer's instructions. All determinations were done in duplicates and at various dilutions of the culture supernatant. IC50 values for LPS-stimulated cells were calculated using a […] least-square fitting equation [y=A+((B−A)/(1+((C−x)̂D))] for best-fit curves (Excel fit software program).
In order to determine the synergistic concentration range of MA to HO, various mixtures thereof were tested for their anti-inflammatory by measuring the inhibition of the synthesis of nitric oxide (NO) as outlined above.
The synergistic effect of a combination of a mixture of MA/HO (1:3 w/w) with glucosamine sulfate (ratio MA/HO (1:3 w/w) to glucosamine sulfate: 50 μmol/L to 50 μmol/L) or chondroitin sulfate (ratio MA/HO (1:3 w/w) to chondroitin sulfate: 13.3 mg/L (i.e. 50 μmol/L) to 500 mg/L) on the inhibition of the inflammatory mediator nitric oxide (NO) has been evaluated based on the method published by Chou and Talalay (A simple generalized equation for the analysis of multiple inhibitions of Michealis-Menten kinetic systems. J. Biol. Chem. 1977. 252: 6438-6442).

Collagen I = test: Gene expression in normal human chondrocytes, RT-PCR; assay type: cell-based; conditions: for Expression level (%) Collagen I: at 12.5 μmol/L, 4 hours, % of unstimulated cells (100%)
Aggrecan = test: as above; assay type: cell-based; conditions: 4 hrs
Experimental: (§1) The effect of MA and HO, mixtures thereof as well as combinations with glucosamine sulfate and chondroitin sulfate on the expression of human aggrecan, collagen I, collagen II, or chondrocyte transcription factors (SOX-6, -9) was measured in vitro in normal human chondrocytes (derived from knee) (CC-2550; Cambrex, respectively). A control experiment without the compounds was done concomitantly to compare the expression of these genes (percentage expression of gene in controls was set to 100%).

TIMP-1 = test: as above; assay type: cell-based; conditions: for Expression level (%) TIMP-1: at 12.5 μmol/L, 4 hours, % of unstimulated cells (100%)
Experimental: [Worded in the source for another target; this target is reported under the same test.] as §1

Collagen II = test: as above; assay type: cell-based; conditions: 4 hrs; 50 μmol/L
MMP-9 = test: as above; assay type: cell-based; conditions: stim. 4 hrs; 50 μmol/L
ADAMTS-4 = test: as above; assay type: cell-based; conditions: unstim. 4 d; 50 μmol/L
ADAMTS-5 = test: as above; assay type: cell-based; conditions: stim. 4 hrs; 500 mg/L; % of IL1β-treated cells
Experimental: [Worded in the source for another target; this target is reported under the same test.] as §1

SOX-9 = test: as above; assay type: cell-based; conditions: for Expression level (%) SOX-9: at 12.5 μmol/L, 4 hours, % of unstimulated cells (100%)
Experimental: as §1

MMP-2 = test: as above; assay type: cell-based; conditions: 4 d; 500 mg/L; % of IL1β-treated cells
[1] = tested on: Inflammatory mediator PGE2; test: Inhibition of PGE2 synthesis in LPS-stimulated RAW264.7 macrophages (EIA); assay type: cell-based, murine; conditions: Mus musculus, read-out: IC50 Observed, inflammatory mediator PGE2
Experimental: The anti-inflammatory effects were determined in cellular assays by measuring the inhibition of the synthesis of nitric oxide and/or pro-inflammatory prostaglandins (PGE2). […] The cells were purchased from ATCC (Manassas, Va., USA) and cultured in DMEM containing streptomycin/penicillin, non-essential amino acids and 10% fetal calf serum (FCS). […] Cells were then starved in complete medium containing 0.25% FCS (D-025). After overnight culture, medium was removed and replaced by 100 μL of D-025 containing the test compounds at twice the final concentration. Subsequently, 100 μL of D-025 containing 2 μg/ml LPS was added (i.e. final LPS concentration of 1 μg/ml) and the cells cultured for 24 hours. […] Concentrations of nitrite which was rapidly formed from nitric oxide released by cells were determined by the Griess reaction using sodium nitrite as standard. Briefly, 50 μl of supernatant was mixed with Griess reagent 1 (25 μL) and Griess reagent 2 (25 μL), centrifuged and the optical density at 540 nm determined. PGE2 secreted into the cell culture medium was determined by EIA obtained from Cayman Chemicals (Ann Harbor, Wis., USA) and used according to the manufacturer's instructions. […] IC50 values for LPS-stimulated cells were calculated using a two-parametric least-square fitting equation [y=A+((B−A)/(1+((C−x)̂D))] for best-fit curves (Excel fit software program).

I-κBalpha = test: Inflammatory gene expression in RAW 264.7 cells, quantitative RT-PCR; assay type: cell-based, murine; conditions: at 12.5 μmol/L, 4 hours; relative to LPS-stimulated cells (100%)
Text: (§2) Inflammatory responses are orchestrated by the transient activation of a variety of genes. Their regulation is tightly controlled via signaling pathways and eventually proteins that control the expression of genes such as transcription factors. Consequently, the effect of the compounds (each of them and various ratios of mixtures) has also been evaluated at the level of the expression of genes that are involved in the inflammatory response. These comprise genes of the prostaglandin synthesis pathway (e.g. COX-2), interleukins (e.g. IL1-α, IL-1β, IL-6), cytokines (e.g. TNF-α), inducible nitric oxide synthase (iNOS) and chemokines. RAW 264.7 cells were stimulated in the presence of different concentrations of substances. After 4 hours, RNA was extracted and the expression of genes determined by quantitative RT-PCR as described by Richard, […]. and […]. in Mol Nutr Food Res 2005. 49: 431-442. In table 3, the effect of MA and HO alone as well as of mixtures thereof in the indicated molar ratios on the expression of inflammatory genes or on anti-inflammatory transcription factors (I-κBα) is shown. The level of mRNA was determined by RT-PCR and expressed relative to the level observed in LPS-stimulated cells (i.e. without compounds).

IL-10 = test: as above; assay type: cell-based, murine; conditions: at 12.5 μmol/L, 4 hours; relative to LPS-stimulated cells (100%)
Text: as §2

IL-1alpha = test: as above; assay type: cell-based, murine; conditions: at 12.5 μmol/L, 4 hours; relative to LPS-stimulated cells (100%)
Text: as §2

TNF-alpha = test: as above; assay type: cell-based, murine; conditions: at 12.5 μmol/L, 4 hours; relative to LPS-stimulated cells (100%)
Text: as §2

SOX-6 = test: Gene expression in normal human chondrocytes, RT-PCR; assay type: cell-based; conditions: at 12.5 μmol/L, 4 hours; % of unstimulated cells (100%)
IL-RI Receptor for Il-1 = test: as above; assay type: cell-based; conditions: at 12.5 μmol/L, 4 hours; control set at 100%
[2] = tested on: normal human chondrocytes; test: Effects on chondrocytes (cartilage build-up), overall gene expression; assay type: cell-based; conditions: 12.5 μmol/L, un- (non-IL1 beta-) stimulated cells
Experimental: as §1
In table 2.1 the effect of MA and HO alone as well as of mixtures thereof in the indicated molar ratios on the expression of genes that are involved in cartilage build-up is shown.

[3] = LPS 1 μg/ml, 24 hours, RAW264.7, read-out: IC50 Observed, inflammatory mediator NO

| Compound | anti-inflammatory activity (in words) (Inflammatory mediator NO; single substance) | IC50 (Inflammatory mediator NO; [3]) | Expression level (%) I-κBalpha (I-κBalpha) | Expression level (%) IL-10 (IL-10) | Expression level (%) IL-1alpha (IL-1alpha) | Expression level (%) TNF-alpha (TNF-alpha) | Expression level (%) Collagen I (Collagen I) | Expression level (%) SOX-6 (SOX-6) | Expression level (%) SOX-9 (SOX-9) | Expression level (%) TIMP-1 (TIMP-1) | Expression level (%) IL-RI (Receptor for Il-1) (IL-RI Receptor for Il-1) | cartilage build-up effect (in words) [2] | also measured |
| --- | --- | --- | --- | --- | --- | --- | --- | --- | --- | --- | --- | --- | --- |
| N[C@H]1C(O)O[C@H](CO)[C@@H](O)[C@@H]1O.O=S(=O)(O)O (stereo partly drawn) [Glucosamine sulfate, glucosamine sulfate] | marginal anti-inflammatory | – | – | – | – | – | – | – | – | – | – | – | IC50 (Inflammatory mediator NO; single substance, LPS-stimulated RAW264.7, read-out: IC50 Nitric Oxide): > 100 µM; level of gene expression Collagen 1 (Collagen I; 4 hrs, 50 μmol/L): 121%; level of gene expression Aggrecan (Aggrecan; 50 μmol/L): 81%; level of gene expression TIMP-1 (TIMP-1; 4 hrs, 50 μmol/L): 110%; level of gene expression Collagen II (Collagen II): 154%; level of gene expression MMP-9 (MMP-9): 114%; level of gene expression ADAMTS-4 (ADAMTS-4): 101% |
| Chondroitin sulfate | marginal anti-inflammatory | – | – | – | – | – | – | – | – | – | – | – | IC50 Nitric Oxide (Inflammatory mediator NO; single substance, LPS-stimulated RAW264.7): >50 µg/mL; level of gene expression ADAMTS-5 (ADAMTS-5): 107%; level of gene expression Aggrecan (Aggrecan; stim., 500 mg/L): 62%; level of gene expression SOX-9 (SOX-9; 500 mg/L, % of unstimulated cells): 147%; level of gene expression TIMP-1 (TIMP-1; unstim., 4 d, 500 mg/L): 106%; level of gene expression MMP-2 (MMP-2): 93% |
| C=CCc1ccc(O)c(-c2ccc(O)c(CC=C)c2)c1 [HO, 3′,5-Diallyl-2,4′-biphenyldiol] | – | 4.58 µM | 96% | 94% | 68% | 81% | 100% | 130% | 124% | 106% | 89% | favors cartilage build-up | IC50 ([1]; LPS 1 μg/ml, 24 hours, RAW264.7): 2.05 µM |
| C=CCc1ccc(O)c(-c2cc(CC=C)ccc2O)c1 [MA, 5,5′-Diallyl-2,2′-biphenyldiol] | – | 8.91 µM | 99% | 136% | 70% | 96% | 78% | 94% | 110% | 96% | 98% | to lesser extent | IC50 ([1]; RAW264.7, 24 h): 5.09 µM |
